Like-named read-outs stand apart in the source and are kept apart here.
Key:
[1] = Pharmacokinetics of oxazolidinones after single oral dose, plasma LC/MS; format: in vivo, BALB/c mice
Method: Pharmacokinetics of oxazolidinones. Uninfected female BALB/c mice weighing approximately 20 g received single doses of SZD (50 mg/kg), LZD (100 mg/kg), TZD (10 or 20 mg/kg) or AZD (50 or 200 mg/kg). Three mice per dose per time point were sampled by cardiac puncture at 0.5, 1, 2, 4, 8 and 24 hours post-dose (plus an additional 16 hour time point for AZD). Plasma drug concentrations were quantified by a validated LC/MS method performed at AstraZeneca (for AZD only) (14) or Rutgers New Jersey Medical School (for other oxazolidinones). Standards for the different oxazolidinones were provided by the sponsors. At Rutgers, analytes of interest were extracted by combining 20 μl of mouse plasma with 20 μl of acetonitrole:water (1:1), and 180 μl of methanol:acetonitrile (1:1) containing 10 mg/ml of verapamil (Sigma-Aldrich) as internal standard. The mixture was vortexed and centrifuged, and 100 μL of the supernatant was recovered and combined with 10 μL of water for analysis. LC/MS-MS analysis was performed with an Agilent 1260 LC-system coupled to an AB Sciex 4000 Q-trap Mass Spectrometer (positive mode, electrospray ionization), and an Agilent column SB-C8, 2.1×30 mm, 3.5 μm, with the column temperature fixed at 24° C. Mobile phase A was 0.1% formic acid in 100% H2O and mobile phase B was 0.1% formic acid in 100% acetonitrile. Injection volumes were routinely 2 μl. The Mass Selective Detector was set to MRM (multiple reaction monitoring) mode using positive polarity ionization, monitoring for the ions of interest SZD (m/z 354.12/312.04), SZD-M1(370.13/238.12), LZD(338.00/235.00), and TZD(371.12/343.00) and the internal standard (m/z 455.4/165.2). The lower limit of quantification for all oxazolidinones was […]. PK parameters were determined by non-compartmental analysis using WinNonlin 6.4 (Certara, Princeton, NJ).

[2] = test system: Mycobacterium tuberculosis H37Rv; format: in vivo
[3] = test system: Gram-positive and Gram-negative bacteria; settings: cited from earlier work
cytochrome P450 = settings: cited from earlier work
[4] = female, BALB/c, mouse, in vivo, single oral dose 50 mg/kg, mean, plasma, read-out: AUC0-24 hr
[5] = female, BALB/c, mouse, in vivo, single oral dose 50 mg/kg, mean, plasma, read-out: Cmax
[6] = female, BALB/c, mouse, in vivo, single oral dose 50 mg/kg, mean, plasma, read-out: Tmax
[7] = female, BALB/c, mouse, in vivo, single oral dose 50 mg/kg, mean, plasma, read-out: t1/2 (converted)
[8] = Example 1, lung, 1 month of treatment, D0 count 6.17±0.27, PMD 50 mg/kg, LZD 100 mg/kg, SZD 50 mg/kg
[9] = female, BALB/c, mouse, in vivo, po, 10 mg/kg
[10] = female, BALB/c, mouse, in vivo, po, 20 mg/kg
[11] = female, BALB/c, mouse, in vivo, po, 100 mg/kg
[12] = M1 metabolite after single oral dose of sutezolid 50 mg/kg, mean, plasma

O=C([C@@H](O)CO)N1CC=C(c2c(F)cc(N3C[C@H](COc4ccon4)OC3=O)cc2F)CC1 [AZD]
predicted AUC0-24 h ([1]; 125 mg/kg dose, interpolated between the 50 and 200 mg/kg doses): 160 to 190 µg·h/mL
AUC(0-t) [1, 4]: 74.8 µg·h/mL
Cmax [1, 5]: 20.4 µg/mL
Tmax [1, 6]: 42 min
half-life [1, 7]: 144 min
AUC(0-t) ([1]; female, BALB/c, mouse, in vivo, single oral dose 200 mg/kg, mean, plasma, read-out: AUC0-24 hr): 220 µg·h/mL
Cmax ([1]; female, BALB/c, mouse, in vivo, single oral dose 200 mg/kg, mean, plasma, read-out: Cmax): 31.4 µg/mL
Tmax ([1]; female, BALB/c, mouse, in vivo, single oral dose 200 mg/kg, mean, plasma, read-out: Tmax): 42 min
half-life ([1]; female, BALB/c, mouse, in vivo, single oral dose 200 mg/kg, mean, plasma, read-out: t1/2 (converted)): 516 min

CC(=O)NC[C@H]1CN(c2ccc(N3CCSCC3)c(F)c2)C(=O)O1 [SZD, sutezolid]
Mean (±SD) log10 CFU count at M1 [2, 8]: 3.85 ± 0.37 log10 CFU
AUC(0-t) [1, 4]: 3.36 µg·h/mL
Cmax [1, 5]: 1.29 µg/mL
Tmax [1, 6]: 30 min
half-life [1, 7]: 168 min

COc1nc2ccc(Br)cc2cc1[C@@H](c1ccccc1)[C@@](O)(CCN(C)C)c1cccc2ccccc12 [BDQ, (1R, 2S)-1-(6-bromo-2methoxy-3-quinolinyl)-4-(dimethylamino)-2-(1-naphthalenyl)-1-phenyl-2-butanol compound with fumaric acid (1:1)]
Mean (±SD) log10 CFU count at M1 [2, 8]: 3.24 ± 0.25 log10 CFU

Cn1nnc(-c2ccc(-c3ccc(N4C[C@H](CO)OC4=O)cc3F)cn2)n1 [TZD, tedizolid]
AUC(0-t) ([1]; female, BALB/c, mouse, in vivo, 10 mg/kg, total drug AUC0-24 h): 40 µg·h/mL
Cmax [1, 9]: 6.42 µg/mL
Tmax [1, 9]: 42 min
half-life [1, 9]: 180 min
AUC(0-t) ([1]; female, BALB/c, mouse, in vivo, po, 10 mg/kg, AUC0-24 hr): 40.4 µg·h/mL
Cmax [1, 10]: 11.4 µg/mL
Tmax [1, 10]: 30 min
half-life [1, 10]: 234 min
AUC(0-t) ([1]; female, BALB/c, mouse, in vivo, po, 20 mg/kg, AUC0-24 hr): 77.7 µg·h/mL

CC(=O)NC[C@H]1CN(c2ccc(N3CCOCC3)c(F)c2)C(=O)O1 [LZD, (S)—N-[[3-[3-Fluoro-4-(4morpholinyl)phenyl]-2-oxo-5-oxazolidinyl]methyl]-acetamide]
Mean (±SD) log10 CFU count at M1 ([2]; in vivo): 4.97 ± 0.26 log10 CFU
Cmax [1, 11]: 81.9 µg/mL
Tmax [1, 11]: 30 min
AUC(0-t) ([1]; female, BALB/c, mouse, in vivo, po, 100 mg/kg, AUC0-24 h): 244 µg·h/mL
AUC(0-t) ([1]; female, BALB/c, mouse, in vivo, po, 100 mg/kg, AUC0-24 hr): 244 µg·h/mL
half-life ([1]; female, BALB/c, mouse, single oral dose 100 mg/kg, mean, plasma, read-out: t1/2 (converted)): 180 min

O=[N+]([O-])c1cn2c(n1)OCC(OCc1ccc(OC(F)(F)F)cc1)C2 (stereo in doubt) [PMD, (6S)-2-nitro-6-{[4-(trifluoromethoxy)benzyl]oxy}-6,7-dihydro-5H-imidazo[2,1-b][1,3]oxazine]
Mean (±SD) log10 CFU count at M1 [2, 8]: 4.57 ± 0.22 log10 CFU
activity against a broad range of Gram-positive and Gram-negative bacteria [3]: no significant activity
cytochrome P450 interactions (cytochrome P450): no significant cytochrome P450 interactions

CC(=O)NC[C@H]1CN(c2ccc(N3CC[S+]([O-])CC3)c(F)c2)C(=O)O1 [Sutezolid M1]
AUC0-24 hr [1, 12]: 31.945 µg·h/mL
Cmax [1, 12]: 15.233 µg/mL
Tmax [1, 12]: 30 min
Cmax relative to SZD parent ([1]; after oral SZD 50 mg/kg): approximately 10 times
mean AUC0-24 h relative to SZD parent ([1]; after oral SZD 50 mg/kg): approximately 10 times

— patent US20230414625A1, “Combination Antibacterial Composition and Short-Course Antibacterial Regimen” (The Global Alliance for TB Drug Development, Inc., priority 2015, published 2023)
